From PubChem BioAssay AID248 (DTP/NCI, 2004)
Inconclusive results and toxic doses are left out. Rule as the data show it: active = T/C of 150% or more; inactive = T/C below 125%.

System: L1210 leukemia ip in BDF1 mice, survival T/C
Assay: NCI In Vivo Anticancer Drug Screen. Data for tumor model L1210 Leukemia (intraperitoneal) in B6D2F1 (BDF1) mice
Conditions: endpoint: mean survival time, higher = longer survival
How it was run: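 Tumor was transplanted into mice, which were then dosed with test compound or vehicle alone. Survival was recorded for each group, and the treated figure was expressed relative to the control figure.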

[1] = dose: 50.0 mg/kg/injection, schedule: Q01DX001 (ip), vehicle: carboxymethylcellulose (CMC)
[2] = dose: 100.0 mg/kg/injection, schedule: Q01DX001 (ip), vehicle: carboxymethylcellulose (CMC)
[3] = dose: 200.0 mg/kg/injection, schedule: Q01DX001 (ip), vehicle: carboxymethylcellulose (CMC)
[4] = dose: 400.0 mg/kg/injection, schedule: Q01DX001 (ip), vehicle: carboxymethylcellulose (CMC)
[5] = dose: 100.0 mg/kg/injection, schedule: Q04DX003 (ip), vehicle: saline
[6] = dose: 200.0 mg/kg/injection, schedule: Q04DX003 (ip), vehicle: saline
[7] = dose: 400.0 mg/kg/injection, schedule: Q04DX003 (ip), vehicle: saline
[8] = dose: 100.0 mg/kg/injection, schedule: Q04DX003 (ip), vehicle: saline with Tween-80
[9] = dose: 400.0 mg/kg/injection, schedule: Q04DX003 (ip), vehicle: saline with Tween-80
[10] = dose: 100.0 mg/kg/injection, schedule: Q01DX009 (ip), vehicle: saline
[11] = dose: 200.0 mg/kg/injection, schedule: Q01DX009 (ip), vehicle: saline
[12] = dose: 50.0 mg/kg/injection, schedule: Q04DX003 (ip), vehicle: saline
[13] = dose: 100.0 mg/kg/injection, schedule: Q01DX001 (ip), vehicle: Klucel (hydroxypropylcellulose) (HPC)
[14] = dose: 200.0 mg/kg/injection, schedule: Q01DX001 (ip), vehicle: Klucel (hydroxypropylcellulose) (HPC)
[15] = dose: 100.0 mg/kg/injection, schedule: Q04DX002 (ip), vehicle: Klucel (hydroxypropylcellulose) (HPC)
[16] = dose: 200.0 mg/kg/injection, schedule: Q04DX002 (ip), vehicle: Klucel (hydroxypropylcellulose) (HPC)
[17] = dose: 400.0 mg/kg/injection, schedule: Q04DX002 (ip), vehicle: Klucel (hydroxypropylcellulose) (HPC)

Measured: T/C

CC(=O)OCC1OC(N2C(=O)/C(=C/c3ccc(Cl)cc3)SC2=S)C(OC(C)=O)C(OC(C)=O)C1OC(C)=O (stereo not drawn)
inactive: dose: 25.0 mg/kg/injection, schedule: Q01DX005 (ip), vehicle: other 97 % of control

CC(=O)c1cccc2c(C(C)=O)cccc12
inactive: [1] 105 % of control | [2] 103 % of control | [3] 111 % of control | [4] 103 % of control

Cc1c(C#N)c2ccccc2c2ccccc12
inactive: [5] 103 % of control | [6] 103 % of control | [7] 95 % of control

COc1cc(C(=O)Nc2ccc(F)cc2)cc(OC)c1OC
inactive: dose: 100.0 mg/kg/injection, schedule: Q01DX009 (ip), vehicle: Klucel (hydroxypropylcellulose) (HPC) 92 % of control | dose: 200.0 mg/kg/injection, schedule: Q01DX009 (ip), vehicle: Klucel (hydroxypropylcellulose) (HPC) 97 % of control | dose: 400.0 mg/kg/injection, schedule: Q01DX009 (ip), vehicle: Klucel (hydroxypropylcellulose) (HPC) 94 % of control

O=C(c1ccc(Cl)cc1Cl)C(CS(=O)(=O)O)CS(=O)(=O)O
inactive: [8] 99 % of control | dose: 200.0 mg/kg/injection, schedule: Q04DX003 (ip), vehicle: saline with Tween-80 98 % of control | [9] 100 % of control

C=C(C)C(N)=O
inactive: [10] 102 % of control | [11] 94 % of control

O=C1CCCC(=O)N1.[Tl]
inactive: dose: 3.12 mg/kg/injection, schedule: Q04DX003 (ip), vehicle: water 108 % of control | dose: 6.25 mg/kg/injection, schedule: Q04DX003 (ip), vehicle: water 102 % of control | dose: 12.5 mg/kg/injection, schedule: Q04DX003 (ip), vehicle: water 96 % of control

COCCNP(=O)(OC(C)C)OC(C)C
inactive: [10] 97 % of control | [11] 92 % of control | dose: 400.0 mg/kg/injection, schedule: Q01DX009 (ip), vehicle: saline 94 % of control

c1ccc(NNCC[P+](c2ccccc2)(c2ccccc2)c2ccccc2)cc1
inactive: dose: 15.0 mg/kg/injection, schedule: Q01DX001 (ip), vehicle: carboxymethylcellulose (CMC) 91 % of control

CCOP(=O)(Nc1ccc2c(c1)Cc1c-2cc(Br)c(NC(C)=O)c1Br)OCC
inactive: [1] 97 % of control | [2] 94 % of control | [3] 105 % of control | [4] 100 % of control

N=C(N)c1ccc(NC(=O)c2ccc(C(=O)Nc3ccc(C(=N)N)cc3)c(N)c2)cc1
inactive: dose: 62.0 mg/kg/injection, schedule: Q01DX Z (ip), vehicle: carboxymethylcellulose (CMC) 106 % of control | dose: 125.0 mg/kg/injection, schedule: Q01DX Z (ip), vehicle: carboxymethylcellulose (CMC) 118 % of control | dose: 500.0 mg/kg/injection, schedule: Q01DX Z (ip), vehicle: carboxymethylcellulose (CMC) 113 % of control

COP(=O)(OC)OC=C(Cl)Cl
inactive: dose: 25.0 mg/kg/injection, schedule: Q04DX002 (ip), vehicle: saline 94 % of control | dose: 50.0 mg/kg/injection, schedule: Q04DX002 (ip), vehicle: saline 105 % of control | dose: 100.0 mg/kg/injection, schedule: Q04DX002 (ip), vehicle: saline 98 % of control

COCP(=O)(OC)OC
inactive: [5] 116 % of control | [6] 94 % of control | [7] 100 % of control

CCC(Cl)COP(=O)(OCC(Cl)CC)OC(C(C)C)P(=O)(OCC(Cl)CC)OCC(Cl)CC (stereo not drawn)
inactive: dose: 100.0 mg/kg/injection, schedule: Q04DX003 (ip), vehicle: Klucel (hydroxypropylcellulose) (HPC) 95 % of control | dose: 200.0 mg/kg/injection, schedule: Q04DX003 (ip), vehicle: Klucel (hydroxypropylcellulose) (HPC) 93 % of control | dose: 400.0 mg/kg/injection, schedule: Q04DX003 (ip), vehicle: Klucel (hydroxypropylcellulose) (HPC) 90 % of control

O=C1CCCN1.O=C1CCCN1.[Br][Co][Br]
inactive: dose: 37.5 mg/kg/injection, schedule: Q01DX009 (ip), vehicle: saline 113 % of control | [12] 107 % of control | dose: 75.0 mg/kg/injection, schedule: Q01DX001 (ip), vehicle: saline 103 % of control | dose: 75.0 mg/kg/injection, schedule: Q01DX009 (ip), vehicle: saline 116 % of control | [5] 109 % of control | dose: 150.0 mg/kg/injection, schedule: Q01DX001 (ip), vehicle: saline 102 % of control | dose: 300.0 mg/kg/injection, schedule: Q01DX001 (ip), vehicle: saline 97 % of control

C1CN(C[C@H]2COC[C@@H](CN3CCOCC3)O2)CCO1
inactive: dose: 75.0 mg/kg/injection, schedule: Q04DX003 (ip), vehicle: saline 98 % of control | dose: 150.0 mg/kg/injection, schedule: Q04DX003 (ip), vehicle: saline 106 % of control | dose: 300.0 mg/kg/injection, schedule: Q04DX003 (ip), vehicle: saline 95 % of control

Cc1ccc(-n2c(O)c(N=Nc3ccc(Cl)cc3)c(=O)n(-c3ccc(Br)cc3)c2=S)cc1
inactive: dose: 50.0 mg/kg/injection, schedule: Q01DX001 (ip), vehicle: Klucel (hydroxypropylcellulose) (HPC) 103 % of control | [13] 105 % of control | [14] 108 % of control

CCC(C)C(CCN1CCCCC1)(CNC(=O)CN(CC)CC)Cc1cccc2ccccc12 (stereo not drawn)
inactive: dose: 12.5 mg/kg/injection, schedule: Q04DX003 (ip), vehicle: saline 101 % of control | dose: 25.0 mg/kg/injection, schedule: Q04DX003 (ip), vehicle: saline 103 % of control | [12] 98 % of control

CNNP1(=O)OCC(C)([N+](=O)[O-])CO1 (stereo not drawn)
inactive: dose: 100.0 mg/kg/injection, schedule: Q01DX001 (ip), vehicle: saline 101 % of control | dose: 200.0 mg/kg/injection, schedule: Q01DX001 (ip), vehicle: saline 101 % of control

CC(C)OC(=O)c1ccc([N+](=O)[O-])cc1
inactive: [15] 95 % of control | [16] 110 % of control | [17] 95 % of control

COC(=O)c1ccc(=O)n(C/C=C(\C)CCC2OC2(C)C)c1 (stereo not drawn)
inactive: dose: 100.0 mg/kg/injection, schedule: Q04DX003 (ip), vehicle: water 100 % of control | dose: 200.0 mg/kg/injection, schedule: Q04DX003 (ip), vehicle: water 104 % of control | dose: 400.0 mg/kg/injection, schedule: Q04DX003 (ip), vehicle: water 102 % of control

CCOC(=S)c1ccc(S(=O)(=O)Nc2ccc(OCC)cc2)cc1
inactive: [13] 95 % of control | [14] 98 % of control | dose: 400.0 mg/kg/injection, schedule: Q01DX001 (ip), vehicle: Klucel (hydroxypropylcellulose) (HPC) 95 % of control

Brc1sccc1-c1cccc2ccccc12
inactive: [8] 94 % of control | [9] 91 % of control

CC12C=CC(=O)C=C1CCC1C2C(O)CC2(C)C1CCC2(O)C(=O)COC(=O)CCCc1ccc(N(CCCl)CCCl)cc1 (stereo not drawn)
inactive: dose: 12.5 mg/kg/injection, schedule: Q01DX009 (ip), vehicle: Klucel (hydroxypropylcellulose) (HPC) 116 % of control | dose: 12.5 mg/kg/injection, schedule: Q04DX003 (ip), vehicle: Klucel (hydroxypropylcellulose) (HPC) 97 % of control | dose: 15.0 mg/kg/injection, schedule: Q01DX009 (ip), vehicle: saline with Tween-80 107 % of control | dose: 25.0 mg/kg/injection, schedule: Q01DX009 (ip), vehicle: Klucel (hydroxypropylcellulose) (HPC) 122 % of control | dose: 25.0 mg/kg/injection, schedule: Q04DX003 (ip), vehicle: Klucel (hydroxypropylcellulose) (HPC) 110 % of control | dose: 30.0 mg/kg/injection, schedule: Q01DX009 (ip), vehicle: saline with Tween-80 114 % of control | dose: 50.0 mg/kg/injection, schedule: Q01DX009 (ip), vehicle: Klucel (hydroxypropylcellulose) (HPC) 124 % of control | dose: 50.0 mg/kg/injection, schedule: Q04DX003 (ip), vehicle: Klucel (hydroxypropylcellulose) (HPC) 109 % of control | dose: 60.0 mg/kg/injection, schedule: Q01DX009 (ip), vehicle: saline with Tween-80 108 % of control | dose: 75.0 mg/kg/injection, schedule: Q01DX001 (sc), vehicle: steriod suspending solution 103 % of control | dose: 150.0 mg/kg/injection, schedule: Q01DX001 (sc), vehicle: steriod suspending solution 111 % of control | dose: 300.0 mg/kg/injection, schedule: Q01DX001 (sc), vehicle: steriod suspending solution 108 % of control

Cc1cccc(C)c1NC(=S)Nc1ccccc1
inactive: [15] 101 % of control | [16] 105 % of control | [17] 90 % of control
